Test results: ChEMBL document CHEMBL1201862, “PubChem BioAssay data set” (2004)
Calls of active or inactive are those of the source.

What was measured:
HEK293 [1] = experiment: inhibition of NOD1-driven NF-kB reporter – cell-based, luminescence, uHTS, primary screen (AID 1578); format: functional; conditions: Homo sapiens
HEK293 [2] = experiment: cells; format: functional, cell-based; conditions: Homo sapiens
[3] = biological target: T1, Hepatocyte nuclear factor 4-alpha (Homo sapiens, UniProt P41235); format: functional, cell-based;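 note: biochemical luminescence-based dose-response counterscreen measuring inhibition of HNF4 dimerization, run alongside a screen for blockers of ABHD5–perilipin-5 interaction; split luciferase complementation of HNF4 fusion proteins in cell lysate measuring dimerization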
T1 sequence (P41235 whole entry): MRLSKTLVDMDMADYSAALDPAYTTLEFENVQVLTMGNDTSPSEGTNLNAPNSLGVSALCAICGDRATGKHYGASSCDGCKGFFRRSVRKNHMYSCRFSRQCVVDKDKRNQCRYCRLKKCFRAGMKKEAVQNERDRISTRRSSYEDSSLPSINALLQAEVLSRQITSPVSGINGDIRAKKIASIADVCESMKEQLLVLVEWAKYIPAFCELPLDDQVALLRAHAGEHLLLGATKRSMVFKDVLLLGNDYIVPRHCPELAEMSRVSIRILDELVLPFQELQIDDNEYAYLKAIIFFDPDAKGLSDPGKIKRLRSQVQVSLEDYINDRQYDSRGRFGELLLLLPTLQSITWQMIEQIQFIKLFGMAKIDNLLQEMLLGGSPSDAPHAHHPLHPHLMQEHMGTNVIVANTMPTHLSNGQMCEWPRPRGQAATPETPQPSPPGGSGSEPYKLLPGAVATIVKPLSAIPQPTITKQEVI

HEK293 [4] = experiment: cells; format: functional, cell-based; conditions: Homo sapiens; remark: listed apart in the source
HEK293 [5] = experiment: NOD2 signaling inhibitors in MDP-stimulated cells, cell-based, uHTS, luminescence (AID 2001); format: functional; conditions: Homo sapiens
Tumor necrosis factor = Tumor necrosis factor (Homo sapiens, UniProt P01375); experiment: analog potency on TNFa NF-kB signaling – cell-based, revised, SAR follow-up (AID 2337); format: functional
HEK293 [6] = experiment: cells; conditions: Homo sapiens
[7] = biological target: T2, Nucleotide-binding oligomerization domain-containing protein 1 (Homo sapiens, UniProt Q9Y239); experiment: blockers of NOD1 pathway activity – revised, SAR follow-up (AID 2333); format: functional
T2 sequence (Q9Y239 whole entry): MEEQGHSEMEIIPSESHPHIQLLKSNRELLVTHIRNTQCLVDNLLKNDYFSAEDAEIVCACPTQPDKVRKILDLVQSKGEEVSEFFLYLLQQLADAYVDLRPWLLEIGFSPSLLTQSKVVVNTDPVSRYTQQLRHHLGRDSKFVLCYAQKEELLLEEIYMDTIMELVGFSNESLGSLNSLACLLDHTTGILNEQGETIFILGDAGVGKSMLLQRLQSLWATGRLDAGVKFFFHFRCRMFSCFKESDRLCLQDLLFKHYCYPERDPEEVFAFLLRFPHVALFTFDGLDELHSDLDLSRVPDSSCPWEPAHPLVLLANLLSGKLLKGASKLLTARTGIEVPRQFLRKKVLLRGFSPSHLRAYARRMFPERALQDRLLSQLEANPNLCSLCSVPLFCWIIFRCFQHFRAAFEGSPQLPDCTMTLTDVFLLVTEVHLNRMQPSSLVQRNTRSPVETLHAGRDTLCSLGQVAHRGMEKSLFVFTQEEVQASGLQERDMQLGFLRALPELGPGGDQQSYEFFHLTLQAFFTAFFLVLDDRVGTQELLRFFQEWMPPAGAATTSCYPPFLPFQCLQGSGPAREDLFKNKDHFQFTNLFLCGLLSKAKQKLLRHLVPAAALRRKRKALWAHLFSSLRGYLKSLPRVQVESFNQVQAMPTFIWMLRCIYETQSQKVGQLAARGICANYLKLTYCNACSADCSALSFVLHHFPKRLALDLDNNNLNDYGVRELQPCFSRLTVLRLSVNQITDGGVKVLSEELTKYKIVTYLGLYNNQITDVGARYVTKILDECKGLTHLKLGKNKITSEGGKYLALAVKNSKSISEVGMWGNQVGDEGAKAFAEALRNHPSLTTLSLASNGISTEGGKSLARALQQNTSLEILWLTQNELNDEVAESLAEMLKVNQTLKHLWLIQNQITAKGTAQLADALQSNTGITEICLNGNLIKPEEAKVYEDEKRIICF

Genome polyprotein = Genome polyprotein (dengue virus type 2, UniProt P29990); experiment: flavivirus cap methylation enzyme inhibition – biochemical, confirmation dose response, primary screen (AID 588689); format: functional
[8] = Luminescence Cell-Based Dose Retest to Confirm Inhibitors of Cancer Stem Cells. [Related pubchem assays (depositor defined):AID2717, AID2721]; format: functional; conditions: Homo sapiens
Aminopeptidase N = biological target: T3, Aminopeptidase N (Plasmodium falciparum FcB1/Columbia, UniProt O96935); experiment: malaria alanyl aminopeptidase activity blockers – biochemical, fluorogenic H-Leu-NHMec substrate, 1536-well (AID 1445); design: species or system Plasmodium falciparum 3D7, 3D7
T3 sequence (O96935 whole entry): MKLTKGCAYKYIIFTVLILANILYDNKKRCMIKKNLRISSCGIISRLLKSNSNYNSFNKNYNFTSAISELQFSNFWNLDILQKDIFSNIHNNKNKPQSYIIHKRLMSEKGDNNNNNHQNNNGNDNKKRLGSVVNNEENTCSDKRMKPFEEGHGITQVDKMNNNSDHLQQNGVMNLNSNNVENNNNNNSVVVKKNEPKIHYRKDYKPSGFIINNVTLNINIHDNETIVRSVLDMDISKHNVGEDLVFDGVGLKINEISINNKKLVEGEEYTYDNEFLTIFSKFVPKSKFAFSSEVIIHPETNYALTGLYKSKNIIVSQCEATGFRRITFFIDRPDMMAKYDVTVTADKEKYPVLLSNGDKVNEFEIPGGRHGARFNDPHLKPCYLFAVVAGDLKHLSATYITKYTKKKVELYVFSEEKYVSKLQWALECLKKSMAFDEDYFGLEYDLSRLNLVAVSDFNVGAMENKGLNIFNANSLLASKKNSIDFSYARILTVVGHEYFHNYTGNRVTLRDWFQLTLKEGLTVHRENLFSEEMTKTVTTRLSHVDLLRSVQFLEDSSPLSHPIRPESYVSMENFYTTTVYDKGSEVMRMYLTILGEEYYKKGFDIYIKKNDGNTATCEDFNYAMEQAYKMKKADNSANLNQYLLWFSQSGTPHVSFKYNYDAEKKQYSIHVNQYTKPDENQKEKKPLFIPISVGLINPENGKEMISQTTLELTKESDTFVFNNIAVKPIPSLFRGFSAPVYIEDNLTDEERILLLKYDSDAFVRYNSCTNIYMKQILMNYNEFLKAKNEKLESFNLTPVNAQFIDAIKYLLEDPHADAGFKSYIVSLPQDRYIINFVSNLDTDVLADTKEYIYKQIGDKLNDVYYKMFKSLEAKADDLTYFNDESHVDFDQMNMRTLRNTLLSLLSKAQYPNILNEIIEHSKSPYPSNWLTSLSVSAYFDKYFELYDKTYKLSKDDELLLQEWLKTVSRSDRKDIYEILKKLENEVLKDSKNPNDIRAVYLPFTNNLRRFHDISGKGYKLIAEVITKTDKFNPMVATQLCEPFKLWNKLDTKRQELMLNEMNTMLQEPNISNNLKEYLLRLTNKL

[9] = biological target: T4, Bifunctional protein GlmU (Mycobacterium tuberculosis, UniProt P9WMN3); experiment: Inhibitors of Mycobacterial Glucosamine-1-phosphate acetyl transferase (GlmU). Secondary screen.; design: species or system Mycobacterium tuberculosis H37Rv
T4 sequence (P9WMN3 whole entry): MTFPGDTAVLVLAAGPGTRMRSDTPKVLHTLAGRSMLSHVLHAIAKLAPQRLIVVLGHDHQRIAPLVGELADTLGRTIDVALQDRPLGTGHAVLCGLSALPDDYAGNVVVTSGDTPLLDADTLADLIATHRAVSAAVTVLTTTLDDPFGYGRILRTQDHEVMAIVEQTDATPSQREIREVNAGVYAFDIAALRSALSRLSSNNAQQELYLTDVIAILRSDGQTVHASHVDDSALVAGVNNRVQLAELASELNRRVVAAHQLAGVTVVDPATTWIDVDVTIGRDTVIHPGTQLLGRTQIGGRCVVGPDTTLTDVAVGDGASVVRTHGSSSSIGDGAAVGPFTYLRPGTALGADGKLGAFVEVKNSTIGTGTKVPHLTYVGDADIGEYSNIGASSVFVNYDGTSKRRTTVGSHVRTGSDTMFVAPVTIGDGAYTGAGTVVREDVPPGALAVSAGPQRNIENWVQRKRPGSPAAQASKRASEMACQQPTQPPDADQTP

[10] = biological target: Eukaryotic translation initiation factor 4E (Mus musculus, UniProt P63073); experiment: blockers of eIF4G binding by eIF4E – biochemical, TR-FRET, dose response (AID 855); format: functional;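 note: potency for disrupting eIF4E binding to eIF4GI seen as loss of FRET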
[11] = biological target: T5, Mannose-6-phosphate isomerase (Homo sapiens, UniProt P34949); experiment: MPI inhibition at elevated mannose 6-phosphate – biochemical, fluorescence intensity, high mannose 6-phosphate, primary screen (AID 1220)
T5 sequence (P34949 whole entry): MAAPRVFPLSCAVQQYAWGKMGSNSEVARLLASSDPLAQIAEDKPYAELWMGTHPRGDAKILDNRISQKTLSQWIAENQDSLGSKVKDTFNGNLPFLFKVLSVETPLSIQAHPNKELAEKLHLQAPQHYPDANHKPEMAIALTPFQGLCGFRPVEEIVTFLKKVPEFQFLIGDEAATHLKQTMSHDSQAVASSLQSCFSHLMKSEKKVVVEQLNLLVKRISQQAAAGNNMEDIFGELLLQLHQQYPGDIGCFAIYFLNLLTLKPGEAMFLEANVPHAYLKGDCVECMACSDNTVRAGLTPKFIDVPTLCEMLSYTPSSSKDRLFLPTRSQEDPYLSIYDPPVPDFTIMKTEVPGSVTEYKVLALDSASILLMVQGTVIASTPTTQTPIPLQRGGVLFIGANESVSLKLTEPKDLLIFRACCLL

H9c2 = experiment: cells; format: functional, cell-based; conditions: Rattus norvegicus, H9c2, Myocardium;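 note: confirmatory concentration-response retest of ultra-high-throughput screening hits for modulation of myocardial damage; cell death induced by hydrogen peroxide oxidative stress; compound pretreatment for 60 min then peroxide exposure for 2 h; potency is for protecting the cells against peroxide damage rather than for killing them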
[12] = HEK-293T cell viability reduction – luminescence, B-cell screen hits, cytotoxicity control for BCR NF-kB inhibitor project, dose response (AID 489021); format: functional, cell-based;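 note: HEK-293T cells carrying an NF-kB luciferase reporter; cells exposed to compound for about 14 hours before viability readout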
[13] = M. tuberculosis H37Rv growth inhibitors, H37Rv strain (AID 1626); format: functional
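Throughout, for AC50: cells exposed to compound for roughly 70 hours or longer before luminescence read.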

Sequence of Tumor necrosis factor (P01375 whole entry): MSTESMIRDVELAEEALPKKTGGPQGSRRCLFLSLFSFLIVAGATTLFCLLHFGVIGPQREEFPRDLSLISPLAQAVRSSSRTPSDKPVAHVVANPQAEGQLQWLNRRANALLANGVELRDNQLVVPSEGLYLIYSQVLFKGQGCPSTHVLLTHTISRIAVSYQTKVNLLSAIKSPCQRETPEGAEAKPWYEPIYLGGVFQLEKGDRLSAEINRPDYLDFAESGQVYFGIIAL
Sequence of Eukaryotic translation initiation factor 4E (P63073 whole entry): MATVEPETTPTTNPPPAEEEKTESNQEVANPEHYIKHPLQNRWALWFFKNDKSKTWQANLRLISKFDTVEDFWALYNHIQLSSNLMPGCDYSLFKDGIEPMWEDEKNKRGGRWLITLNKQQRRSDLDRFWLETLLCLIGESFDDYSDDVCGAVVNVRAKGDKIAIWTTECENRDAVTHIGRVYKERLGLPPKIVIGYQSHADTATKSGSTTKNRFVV
Sequence of Genome polyprotein (P29990 2492-3391 limits assumed): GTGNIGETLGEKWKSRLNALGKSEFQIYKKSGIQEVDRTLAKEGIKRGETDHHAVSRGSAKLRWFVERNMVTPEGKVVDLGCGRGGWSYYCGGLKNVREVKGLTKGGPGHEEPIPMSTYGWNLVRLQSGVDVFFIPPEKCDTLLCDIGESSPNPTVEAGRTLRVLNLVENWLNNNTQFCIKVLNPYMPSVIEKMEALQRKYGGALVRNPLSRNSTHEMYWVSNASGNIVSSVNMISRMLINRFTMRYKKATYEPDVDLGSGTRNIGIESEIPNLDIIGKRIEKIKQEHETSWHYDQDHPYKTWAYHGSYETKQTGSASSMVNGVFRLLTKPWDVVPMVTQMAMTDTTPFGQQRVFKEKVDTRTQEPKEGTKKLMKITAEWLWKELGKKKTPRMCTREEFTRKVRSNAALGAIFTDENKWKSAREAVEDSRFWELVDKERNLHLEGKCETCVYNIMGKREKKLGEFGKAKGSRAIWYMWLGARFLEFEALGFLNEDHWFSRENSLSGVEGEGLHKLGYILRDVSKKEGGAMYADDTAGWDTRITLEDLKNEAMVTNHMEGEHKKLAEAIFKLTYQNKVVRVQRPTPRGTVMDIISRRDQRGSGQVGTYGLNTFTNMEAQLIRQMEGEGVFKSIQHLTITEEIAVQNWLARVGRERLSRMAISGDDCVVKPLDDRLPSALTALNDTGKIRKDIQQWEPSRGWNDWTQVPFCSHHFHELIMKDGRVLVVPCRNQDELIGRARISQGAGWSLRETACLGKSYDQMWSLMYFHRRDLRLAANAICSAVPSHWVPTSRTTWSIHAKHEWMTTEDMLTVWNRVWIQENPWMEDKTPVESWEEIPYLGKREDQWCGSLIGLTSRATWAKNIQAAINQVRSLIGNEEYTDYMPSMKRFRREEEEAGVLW

For `Oc1nc(/C=C/c2ccc(Cl)cc2Cl)cc(C(F)(F)F)n1`, the EC50 (HEK293 [1]) was 3.83 µM (active), the IC50 (HEK293 [2]) was > 20 µM (inactive) and the IC50 [3] was 4.57 µM (active). For the same compound, the IC50 (HEK293 [4]) was 7.72 µM (active), the IC50 (HEK293 [5]) was 5.9 µM (active) and the IC50 (Tumor necrosis factor) was 3.75 µM (active). For the same compound, the IC50 (HEK293 [6]) was 11.9 µM (active), the IC50 [7] was 1.74 µM (active) and the IC50 (Genome polyprotein) was 68.2 µM (active). For the same compound, the AC50 [8] was 1.49 µM (active).
With `O=C1NC(=S)S/C1=C\c1coc2ccc(O)cc2c1=O` the IC50 (Aminopeptidase N) was 38.8 µM (active) and the IC50 [9] was 112 µM (active).
In the case of `Nc1nnc(SCc2ccccc2Cl)s1`, the IC50 [10] is reported as > 64 µM (inactive).
With `CCC1Cc2c(nc(N)c3c(N)nc(N4CCCCC4)c(C#N)c23)O1` (configuration not stated) the IC50 [11] was > 50 µM (not active).
For `CC(C)N1C(=O)S/C(=C/c2ccc3c(c2)n(C)c(=O)n3C)C1=O`, the IC50 (H9c2) was 32.2 µM (inactive) and the IC50 [12] was > 80 µM (inactive).
In the case of `CC1(C)CC(NC(=O)c2sc3cc(Cl)ccc3c2Cl)CC(C)(C)N1`, the IC50 [13] is reported as > 100 µM (active).
